Measurements published in patent US20080262073A1, “Pyrrolic Derivatives with Histone Deacetylase Inhibitory Activity” (priority 2005, published 2008).

melting point [°C]	SMILES
157 to 158	COc1ccc(-c2cc(-c3ccccc3)c(C(=O)NCCCCCC(=O)NO)[nH]2)cc1 [Example 6]
228 to 229	O=C(O)CCCCCNC(=O)c1[nH]c(-c2ccccc2)cc1-c1ccccc1 [Example 4, 6-(3,5-diphenyl-1H-pyrrole-2-carboxamide)hexanoic acid]
126 to 127	COc1ccc(-c2[nH]c(C(=O)NCCCCCC(=O)NO)c(-c3ccccc3)c2[N+](=O)[O-])cc1 [Example 7]
142	COc1ccc(-c2cc(-c3ccccc3)[nH]c2C(=O)NCCCCCC(=O)NO)cc1 [Example 8]
185 to 187	CNNC(=O)NCCCCNC(=O)c1[nH]c(-c2ccc(OC)cc2)c([N+](=O)[O-])c1-c1cccs1 [Example 11, 1-(4-(5-(4-methoxyphenyl)-4-nitro-3-(thiophene-2-yl)-1H-pyrrole-2-carboxamide)butyl)-3-(2-methylamine)urea]
153 to 154	O=C(O)CCCCCNC(=O)c1[nH]c(-c2ccccc2)c([N+](=O)[O-])c1-c1ccccc1 [Example 5, 6-(4-nitro-3,5-diphenyl-1H-pyrrole-2-carboxamide)hexanoic acid]
